Experimental data published in patent US10463671B2, “Combination therapy for treating cancer” (Epizyme, Inc., priority 2013, dated 2019).

Columns and labels:
[1] = tested on: glucocorticoid signaling genes in SU-DHL4 cells; assay: RT2 Glucocorticoid Signaling PCR array; type: cell-based; set-up: IL10 Ct Values / TNF Ct Values: unit not given here; conditions: SUDHL4 cell line, 4 days
DOHH2 cells = assay: Medium throughput combination proliferation assay (CellTiter-Glo, Chou-Talalay CI / potency shift); conditions: DOHH2 EZH2 wild-type cells

Structure (SMILES): CCN(c1cc(-c2ccc(CN3CCOCC3)cc2)cc(C(=O)NCc2c(C)cc(C)[nH]c2=O)c1C)C1CCOCC1 [Compound 44]
- ACTB Ct Values [1]: 14.247
- ADARB1 Ct Values [1]: 28.562
- AFF1 Ct Values [1]: 25.936
- AK2 Ct Values [1]: 20.311
- AMPD3 Ct Values [1]: 25.553
- ANGPTL4 Ct Values [1]: 29.825
- ANXA4 Ct Values [1]: 28.717
- ARID5B Ct Values [1]: 25.129
- ASPH Ct Values [1]: 23.348
- ATF4 Ct Values [1]: 18.778
- B2M Ct Values [1]: 18.971
- BCL6 Ct Values [1]: 21.075
- CEBPA Ct Values [1]: 31.206
- CEBPB Ct Values [1]: 23.911
- CREB1 Ct Values [1]: 22.973
- CREB3 Ct Values [1]: 24.566
- CREB3L4 Ct Values [1]: 25.089
- CYB561 Ct Values [1]: 36.737
- DDIT4 Ct Values [1]: 21.455
- DUSP1 Ct Values [1]: 26.325
- EDN1 Ct Values [1]: 33.297
- EHD3 Ct Values [1]: 25.766
- FKBP5 Ct Values [1]: 20.494
- FOSL2 Ct Values [1]: 31.757
- GAPDH Ct Values [1]: 15.835
- GDPD1 Ct Values [1]: 28.134
- GHRHR Ct Values [1]: 37.623
- GLUL Ct Values [1]: 35.795
- GOT1 Ct Values [1]: 22.607
- H6PD Ct Values [1]: 25.743
- HAS2 Ct Values [1]: 35.628
- HNRPLL Ct Values [1]: 22.977
- HPRT1 Ct Values [1]: 21.358
- IL6R Ct Values [1]: 33.589
- IL10 Ct Values [1]: 33.099
- KLF9 Ct Values [1]: 27.456
- KLF13 Ct Values [1]: 22.649
- MT2A Ct Values [1]: 24.175
- NFKBIA Ct Values [1]: 22.909
- NR3C1 Ct Values [1]: 22.803
- PDCD7 Ct Values [1]: 24.858
- PDP1 Ct Values [1]: 26.112
- PER1 Ct Values [1]: 24.926
- PER2 Ct Values [1]: 24.371
- PIK3R1 Ct Values [1]: 23.440
- PLEKHF1 Ct Values [1]: 27.868
- POU2F1 Ct Values [1]: 24.224
- POU2F2 Ct Values [1]: 21.920
- RASA3 Ct Values [1]: 23.207
- RGS2 Ct Values [1]: 25.145
- RHOB Ct Values [1]: 32.584
- RPLP0 Ct Values [1]: 15.469
- SGK1 Ct Values [1]: 25.808
- SLC10A6 Ct Values [1]: 34.857
- SLC19A2 Ct Values [1]: 27.465
- SLC22A5 Ct Values [1]: 28.544
- SNTA1 Ct Values [1]: 24.797
- SPHK1 Ct Values [1]: 30.619
- SPSB1 Ct Values [1]: 26.495
- STAT5A Ct Values [1]: 25.174
- STAT5B Ct Values [1]: 22.153
- TBL1XR1 Ct Values [1]: 20.805
- TNF Ct Values [1]: 29.337
- TNFAIP3 Ct Values [1]: 28.521
- TSC22D3 Ct Values [1]: 21.432
- USP2 Ct Values [1]: 21.342
- USP54 Ct Values [1]: 26.952
- VDR Ct Values [1]: 28.330
- VLDLR Ct Values [1]: 28.792
- ZFP36 Ct Values [1]: 24.706
- ZHX3 Ct Values [1]: 24.719
- ZNF281 Ct Values [1]: 23.881
- AK2 ΔΔCT ([1]; compared to DMSO): −0.570
- CREB3 ΔΔCT ([1]; compared to DMSO): −0.490
- FKBP5 ΔΔCT ([1]; compared to DMSO): 0.008
- GOT1 ΔΔCT ([1]; compared to DMSO): 0.065
- TSC22D3 ΔΔCT ([1]; compared to DMSO): −0.002
- ACTB ΔCT (B2M) ([1]; normalized to B2M): −4.472
- ADARB1 ΔCT (B2M) ([1]; normalized to B2M): 8.878
- AFF1 ΔCT (B2M) ([1]; normalized to B2M): 7.118
- AK2 ΔCT (B2M) ([1]; normalized to B2M): 1.846
- AMPD3 ΔCT (B2M) ([1]; normalized to B2M): 6.024
- ANGPTL4 ΔCT (B2M) ([1]; normalized to B2M): 10.570
- ANXA4 ΔCT (B2M) ([1]; normalized to B2M): 8.217
- AQP1 ΔCT (B2M) ([1]; normalized to B2M): 14.226
- ARID5B ΔCT (B2M) ([1]; normalized to B2M): 5.748
- ASPH ΔCT (B2M) ([1]; normalized to B2M): 3.985
- ATF4 ΔCT (B2M) ([1]; normalized to B2M): 0.232
- B2M ΔCT (B2M) ([1]; normalized to B2M): 0.000
- BCL6 ΔCT (B2M) ([1]; normalized to B2M): 1.878
- CEBPA ΔCT (B2M) ([1]; normalized to B2M): 10.026
- CEBPB ΔCT (B2M) ([1]; normalized to B2M): 5.188
- CREB1 ΔCT (B2M) ([1]; normalized to B2M): 4.237
- CREB3L4 ΔCT (B2M) ([1]; normalized to B2M): 5.662
- CREB3 ΔCT (B2M) ([1]; normalized to B2M): 5.665
- CYB561 ΔCT (B2M) ([1]; normalized to B2M): 14.250
- DDIT4 ΔCT (B2M) ([1]; normalized to B2M): 3.098
- DIRAS2 ΔCT (B2M) ([1]; normalized to B2M): 14.626
- DUSP1 ΔCT (B2M) ([1]; normalized to B2M): 7.998
- EDN1 ΔCT (B2M) ([1]; normalized to B2M): 13.616
- FKBP5 ΔCT (B2M) ([1]; normalized to B2M): 3.113
- FOSL2 ΔCT (B2M) ([1]; normalized to B2M): 14.606
- GAPDH ΔCT (B2M) ([1]; normalized to B2M): −2.966
- GDPD1 ΔCT (B2M) ([1]; normalized to B2M): 8.216
- GLUL ΔCT (B2M) ([1]; normalized to B2M): 15.658
- GOT1 ΔCT (B2M) ([1]; normalized to B2M): 4.103
- H6PD ΔCT (B2M) ([1]; normalized to B2M): 6.063
- HAS2 ΔCT (B2M) ([1]; normalized to B2M): 13.205
- HNRPLL ΔCT (B2M) ([1]; normalized to B2M): 3.821
- HPRT1 ΔCT (B2M) ([1]; normalized to B2M): 2.826
- IL1RN ΔCT (B2M) ([1]; normalized to B2M): 17.503
- IL6R ΔCT (B2M) ([1]; normalized to B2M): 13.239
- IL10 ΔCT (B2M) ([1]; normalized to B2M): 12.363
- KLF9 ΔCT (B2M) ([1]; normalized to B2M): 8.013
- KLF13 ΔCT (B2M) ([1]; normalized to B2M): 4.078
- MERTK ΔCT (B2M) ([1]; normalized to B2M): 15.103
- MT2A ΔCT (B2M) ([1]; normalized to B2M): 4.766
- NFKBIA ΔCT (B2M) ([1]; normalized to B2M): 4.260
- NR3C1 ΔCT (B2M) ([1]; normalized to B2M): 4.025
- PDCD7 ΔCT (B2M) ([1]; normalized to B2M): 5.357
- PDGFRB ΔCT (B2M) ([1]; normalized to B2M): 16.449
- PDP1 ΔCT (B2M) ([1]; normalized to B2M): 6.751
- PER1 ΔCT (B2M) ([1]; normalized to B2M): 6.217
- PER2 ΔCT (B2M) ([1]; normalized to B2M): 5.647
- PIK3R1 ΔCT (B2M) ([1]; normalized to B2M): 4.859
- PLEKHF1 ΔCT (B2M) ([1]; normalized to B2M): 8.928
- POU2F1 ΔCT (B2M) ([1]; normalized to B2M): 5.110
- POU2F2 ΔCT (B2M) ([1]; normalized to B2M): 3.085
- RASA3 ΔCT (B2M) ([1]; normalized to B2M): 4.228
- RGS2 ΔCT (B2M) ([1]; normalized to B2M): 5.914
- RHOB ΔCT (B2M) ([1]; normalized to B2M): 11.328
- RHOJ ΔCT (B2M) ([1]; normalized to B2M): 19.737
- RPLP0 ΔCT (B2M) ([1]; normalized to B2M): −3.490
- SESN1 ΔCT (B2M) ([1]; normalized to B2M): 6.439
- SGK1 ΔCT (B2M) ([1]; normalized to B2M): 7.757
- SLC10A6 ΔCT (B2M) ([1]; normalized to B2M): 15.580
- SLC19A2 ΔCT (B2M) ([1]; normalized to B2M): 7.877
- SLC22A5 ΔCT (B2M) ([1]; normalized to B2M): 8.969
- SNTA1 ΔCT (B2M) ([1]; normalized to B2M): 5.666
- SPHK1 ΔCT (B2M) ([1]; normalized to B2M): 10.251
- SPSB1 ΔCT (B2M) ([1]; normalized to B2M): 6.832
- STAT5A ΔCT (B2M) ([1]; normalized to B2M): 6.005
- STAT5B ΔCT (B2M) ([1]; normalized to B2M): 3.152
- TBL1XR1 ΔCT (B2M) ([1]; normalized to B2M): 2.099
- TNF ΔCT (B2M) ([1]; normalized to B2M): 10.753
- TNFAIP3 ΔCT (B2M) ([1]; normalized to B2M): 9.051
- TSC22D3 ΔCT (B2M) ([1]; normalized to B2M): 4.628
- USP2 ΔCT (B2M) ([1]; normalized to B2M): 3.364
- USP54 ΔCT (B2M) ([1]; normalized to B2M): 15.234
- VDR ΔCT (B2M) ([1]; normalized to B2M): 8.200
- VLDLR ΔCT (B2M) ([1]; normalized to B2M): 9.068
- ZFP36 ΔCT (B2M) ([1]; normalized to B2M): 6.014
- ZHX3 ΔCT (B2M) ([1]; normalized to B2M): 5.569
- ZNF281 ΔCT (B2M) ([1]; normalized to B2M): 5.057
- anti-proliferative effect as a single agent (DOHH2 cells): no anti-proliferative effect
